Data reported in patent US11141383B1, “Drug loaded flexible chitoplexes nanoparticles” (King Abdulaziz University, priority 2020, dated 2021).
Where two headings read alike, the source gives them in different places.

Tests used:
[1] = In vitro release study (dialysis bag, phosphate buffer pH 7.4); assay type: physicochemical
Experimental: The in vitro release of RSV from the prepared liposomal NPs, chitoplexes nano-formulation and pure drug suspension was studied. A quantity of each preparation containing 9 mg of drug was placed in a firmly sealed dialysis bag (Sigma-Aldrich Inc.) of a molecular weight cut-off 14 kDa. The dialysis bag was immersed in a glass bottle containing 400 mL phosphate buffer of pH 7.4. The bottles were kept in a shaking water bath (Model 1031; GFL Corporation, Burgwedel, Germany) at 37° C. and 100 rpm. The parameters of the in vitro release study were selected to achieve a sink condition. Aliquots of 2 mL were taken from the receptor compartment at predetermined time intervals with immediate replacement. The quantity of RSV in the withdrawn samples was determined spectrophotometrically at 242 nm. The experiment was done in triplicate for each formulation and mean values were calculated.

[2] = system: human colorectal (HCT-116) cells; test: Cell viability and cytotoxicity assay (MTT); assay type: cell-based; settings: HCT-116, MTT
Experimental: This test aimed to determine the effect of the prepared RSV lipid-based NPs formulations on intestinal cell viability and cytotoxicity. The potential effects of both formulations on human colorectal (HCT-116) cells were assessed by 3-(4,5-dimethylthiazol-2-yl)2,5-diphenyl tetrazolium bromide (MTT) assay. Cells were seeded on 96-well plates (1×10^4 cells/well) and incubated at 37° C. under a humidified atmosphere of 5% CO2 for 24 h. […] Each formulation was compared with a drug-free carrier as a negative control. After incubation, SFM in the control and test wells were replaced by 100 μL/well of MTT solution (0.5 mg/ml) in PBS and incubated at 37° C. for another 3 h. The MTT solution was removed and the purple formazan crystals formed at the bottom of the wells were dissolved using 100 μL DMSO/well with shaking for 2 h at room temperature. The intensity of the color obtained was measured at 549 nm using a microplate reader (ELX 800; Bio-Tek Instruments, Winooski, Vt., USA). Data, expressed as the percentage of viable cells, were compared to the survival of a control group. Values of the half maximal inhibitory concentration (IC50) were also estimated. Cells treated with DMSO only were defined as 100%
To examine the biocompatibility and cytotoxic effects of plain and drug loaded liposomal NPs or chitoplexes nano-formulation, HCT-116 cells were treated with different concentrations of these samples for 3 days and the MTT assay was performed to investigate the effect of these formulation on the viability of living cells. This test depends on the production of a colored formazan by the action of the viable cells' mitochondrial enzymes on MTT. Cells were exposed to increasing RSV concentrations of drug loaded liposomal NPs and chitoplexes nano-formulation standardized at certain RSV concentrations. Cells were also incubated with blank liposomal NPs and chitoplexes nano-formulation to exclude the effect of RSV. […]

[3] = cited from earlier work
[4] = cited from earlier work; remark: listed apart in the source

CC(C)c1nc(N(C)S(C)(=O)=O)nc(-c2ccc(F)cc2)c1/C=C/[C@@H](O)C[C@@H](O)CC(=O)O [RSV pure, Rosuvastatin]
drug release after 24 h ([1]; dialysis bag 14 kDa, phosphate buffer pH 7.4, 37° C., 100 rpm, 24 h): 37.28±2.86%
drug release pattern ([1]; dialysis bag, phosphate buffer pH 7.4, FIG. 4): overall low drug release pattern
IC50 ([2]; after 24 h, read-out: IC50 (μM) after 24 h): 248 µM
IC50 ([2]; after 48 h, read-out: IC50 (μM) after 48 h): 237 µM
IC50 ([2]; after 72 h, read-out: IC50 (μM) after 72 h): 168 µM
elimination half-life ([3]; in vivo): ~19 h
excreted in feces ([3]; in vivo): 90%
time to maximum plasma concentration ([3]; in vivo): 3 to 5 h
bound to plasma protein ([3]; mainly to serum albumin): 88%
oral bioavailability ([3]; oral): ~20%
orally administered dose absorbed ([3]; oral): about 25%
water solubility [4]: low
